Measured values taken from the supplement of paper PMC12463676, “Small-molecule dissolution of stress granules by redox modulation benefits ALS models” (Nature Chemical Biology, 2025).

compound: NC(=O)CCCCC1CCSS1 [lipoamide]; assay: thermal stability z-score vs DMSO; higher = more thermally stabilized by treatment; conditions: HeLa; lipoamide concentration 100 µM; arsenate co-treatment: none
Protocol: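 Cellular thermal proteome profiling in HeLa cells. Cells were treated with 100 µM lipoamide for 1 h, with or without 1 mM arsenate for a further 1 h, then heated to ten temperatures (37-66.3 °C), and soluble protein was quantified by TMT mass spectrometry relative to 0.1% DMSO controls. The thermal stability score (sum of log2 fold changes minus the abundance score) was transformed to a z-score; mean of n = 3 experiments.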
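Also: each temperature applied for 3 min, abundance score taken as mean log2 fold change at the two lowest temperatures, z-score obtained by mean subtraction and division by SD.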

UniProt P12814, sequence (P12814 whole entry): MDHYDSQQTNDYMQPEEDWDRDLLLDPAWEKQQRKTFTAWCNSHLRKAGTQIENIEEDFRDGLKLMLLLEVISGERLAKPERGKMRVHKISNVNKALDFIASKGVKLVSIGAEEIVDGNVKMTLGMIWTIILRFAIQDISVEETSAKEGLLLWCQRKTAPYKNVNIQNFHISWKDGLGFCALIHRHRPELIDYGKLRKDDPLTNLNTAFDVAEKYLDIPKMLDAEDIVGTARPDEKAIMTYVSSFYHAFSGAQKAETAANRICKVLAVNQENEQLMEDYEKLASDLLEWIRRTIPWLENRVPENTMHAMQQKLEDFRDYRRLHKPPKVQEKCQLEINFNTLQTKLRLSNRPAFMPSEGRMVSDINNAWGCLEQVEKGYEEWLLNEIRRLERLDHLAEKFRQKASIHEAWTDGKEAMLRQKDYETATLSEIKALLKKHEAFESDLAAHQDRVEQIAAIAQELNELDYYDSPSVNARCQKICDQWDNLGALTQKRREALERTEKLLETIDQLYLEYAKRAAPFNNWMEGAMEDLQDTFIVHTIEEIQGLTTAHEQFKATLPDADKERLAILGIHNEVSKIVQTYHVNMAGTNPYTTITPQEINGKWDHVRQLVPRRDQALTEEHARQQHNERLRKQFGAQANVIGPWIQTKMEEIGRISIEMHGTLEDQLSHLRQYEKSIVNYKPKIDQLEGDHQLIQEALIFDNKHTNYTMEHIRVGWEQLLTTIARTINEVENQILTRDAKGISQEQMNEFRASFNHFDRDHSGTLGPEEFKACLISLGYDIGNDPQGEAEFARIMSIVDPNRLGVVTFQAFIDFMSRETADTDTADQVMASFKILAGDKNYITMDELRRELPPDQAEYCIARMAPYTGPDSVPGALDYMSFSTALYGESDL
UniProt Q9Y255, sequence (Q9Y255 whole entry): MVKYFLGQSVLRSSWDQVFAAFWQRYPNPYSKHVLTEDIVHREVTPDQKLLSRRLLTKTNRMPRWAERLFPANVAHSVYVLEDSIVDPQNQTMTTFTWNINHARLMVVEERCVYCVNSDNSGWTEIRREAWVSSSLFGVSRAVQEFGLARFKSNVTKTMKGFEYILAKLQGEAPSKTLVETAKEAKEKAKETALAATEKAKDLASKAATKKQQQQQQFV
UniProt O14772, sequence (O14772 whole entry): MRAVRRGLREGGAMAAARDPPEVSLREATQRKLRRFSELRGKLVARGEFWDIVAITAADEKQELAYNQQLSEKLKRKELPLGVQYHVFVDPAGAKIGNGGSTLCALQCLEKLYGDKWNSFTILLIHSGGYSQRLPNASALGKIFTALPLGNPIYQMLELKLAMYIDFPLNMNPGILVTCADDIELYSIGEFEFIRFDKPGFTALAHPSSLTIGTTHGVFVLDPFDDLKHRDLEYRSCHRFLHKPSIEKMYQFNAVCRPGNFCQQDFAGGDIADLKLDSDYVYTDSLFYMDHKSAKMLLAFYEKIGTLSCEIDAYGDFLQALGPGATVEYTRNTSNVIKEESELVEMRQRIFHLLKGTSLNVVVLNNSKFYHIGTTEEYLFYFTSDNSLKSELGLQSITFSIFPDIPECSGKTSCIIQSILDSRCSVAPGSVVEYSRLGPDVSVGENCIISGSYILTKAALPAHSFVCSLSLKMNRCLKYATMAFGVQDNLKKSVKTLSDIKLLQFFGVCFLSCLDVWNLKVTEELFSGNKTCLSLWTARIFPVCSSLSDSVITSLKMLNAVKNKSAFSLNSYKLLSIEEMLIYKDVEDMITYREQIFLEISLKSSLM
UniProt Q99497, sequence (Q99497 whole entry): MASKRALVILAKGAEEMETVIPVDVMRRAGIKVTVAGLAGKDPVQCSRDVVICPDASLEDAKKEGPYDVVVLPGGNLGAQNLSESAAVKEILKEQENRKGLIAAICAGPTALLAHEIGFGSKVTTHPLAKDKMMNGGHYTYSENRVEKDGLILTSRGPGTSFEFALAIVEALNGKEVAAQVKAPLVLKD
UniProt Q96CM3, sequence (Q96CM3 whole entry): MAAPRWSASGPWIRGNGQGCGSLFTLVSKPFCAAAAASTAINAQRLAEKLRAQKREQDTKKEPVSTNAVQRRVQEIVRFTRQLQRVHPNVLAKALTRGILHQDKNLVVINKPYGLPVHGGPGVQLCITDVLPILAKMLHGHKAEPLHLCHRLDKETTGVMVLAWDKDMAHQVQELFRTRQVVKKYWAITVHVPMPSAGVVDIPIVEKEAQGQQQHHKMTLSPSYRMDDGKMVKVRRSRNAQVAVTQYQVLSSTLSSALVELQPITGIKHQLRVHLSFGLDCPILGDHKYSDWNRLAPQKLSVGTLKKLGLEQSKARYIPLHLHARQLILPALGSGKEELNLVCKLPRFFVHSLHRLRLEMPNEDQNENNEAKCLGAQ
UniProt P07108, sequence (P07108 whole entry): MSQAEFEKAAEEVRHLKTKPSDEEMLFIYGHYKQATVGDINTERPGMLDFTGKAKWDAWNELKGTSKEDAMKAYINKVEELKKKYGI
UniProt O43379, sequence (O43379 whole entry): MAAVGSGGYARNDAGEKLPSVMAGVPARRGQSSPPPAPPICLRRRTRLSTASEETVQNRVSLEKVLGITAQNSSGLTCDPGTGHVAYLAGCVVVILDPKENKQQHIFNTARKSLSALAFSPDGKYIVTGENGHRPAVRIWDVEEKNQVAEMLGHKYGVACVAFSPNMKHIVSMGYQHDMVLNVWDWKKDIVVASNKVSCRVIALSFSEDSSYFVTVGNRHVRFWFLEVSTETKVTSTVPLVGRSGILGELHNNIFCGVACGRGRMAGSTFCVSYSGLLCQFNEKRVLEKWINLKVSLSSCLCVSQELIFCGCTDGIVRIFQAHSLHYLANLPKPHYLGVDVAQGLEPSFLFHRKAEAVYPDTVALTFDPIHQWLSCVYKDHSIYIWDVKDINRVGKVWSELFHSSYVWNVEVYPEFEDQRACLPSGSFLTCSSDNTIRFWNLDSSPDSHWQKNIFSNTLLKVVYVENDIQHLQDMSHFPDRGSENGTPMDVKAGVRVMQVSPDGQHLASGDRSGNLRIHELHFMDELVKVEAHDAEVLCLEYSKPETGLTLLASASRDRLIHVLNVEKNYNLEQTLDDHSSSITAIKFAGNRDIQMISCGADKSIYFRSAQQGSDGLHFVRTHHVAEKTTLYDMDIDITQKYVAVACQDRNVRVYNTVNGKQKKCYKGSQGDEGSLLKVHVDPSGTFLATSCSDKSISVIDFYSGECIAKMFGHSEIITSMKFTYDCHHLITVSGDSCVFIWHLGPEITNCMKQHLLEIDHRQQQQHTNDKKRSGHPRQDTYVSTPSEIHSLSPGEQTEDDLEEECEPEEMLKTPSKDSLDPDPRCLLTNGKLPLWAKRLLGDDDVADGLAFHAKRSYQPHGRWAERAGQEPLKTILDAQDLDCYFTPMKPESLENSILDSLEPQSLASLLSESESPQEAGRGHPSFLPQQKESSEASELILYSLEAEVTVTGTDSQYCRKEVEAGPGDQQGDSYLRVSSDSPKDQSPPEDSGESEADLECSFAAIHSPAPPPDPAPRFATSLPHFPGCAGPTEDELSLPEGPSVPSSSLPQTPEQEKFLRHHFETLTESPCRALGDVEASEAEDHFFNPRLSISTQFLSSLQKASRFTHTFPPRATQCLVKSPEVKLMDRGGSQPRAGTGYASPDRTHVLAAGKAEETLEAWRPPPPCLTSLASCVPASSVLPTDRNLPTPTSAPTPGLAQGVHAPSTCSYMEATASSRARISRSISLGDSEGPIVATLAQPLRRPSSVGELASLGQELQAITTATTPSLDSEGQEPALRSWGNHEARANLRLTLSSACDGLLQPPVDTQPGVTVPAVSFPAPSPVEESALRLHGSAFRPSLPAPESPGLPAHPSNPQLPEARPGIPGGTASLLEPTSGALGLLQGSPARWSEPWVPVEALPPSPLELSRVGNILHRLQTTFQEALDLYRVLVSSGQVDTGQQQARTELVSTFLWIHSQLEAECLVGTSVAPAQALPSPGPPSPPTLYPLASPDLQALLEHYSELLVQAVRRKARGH
UniProt Q9Y4K3, sequence (Q9Y4K3 whole entry): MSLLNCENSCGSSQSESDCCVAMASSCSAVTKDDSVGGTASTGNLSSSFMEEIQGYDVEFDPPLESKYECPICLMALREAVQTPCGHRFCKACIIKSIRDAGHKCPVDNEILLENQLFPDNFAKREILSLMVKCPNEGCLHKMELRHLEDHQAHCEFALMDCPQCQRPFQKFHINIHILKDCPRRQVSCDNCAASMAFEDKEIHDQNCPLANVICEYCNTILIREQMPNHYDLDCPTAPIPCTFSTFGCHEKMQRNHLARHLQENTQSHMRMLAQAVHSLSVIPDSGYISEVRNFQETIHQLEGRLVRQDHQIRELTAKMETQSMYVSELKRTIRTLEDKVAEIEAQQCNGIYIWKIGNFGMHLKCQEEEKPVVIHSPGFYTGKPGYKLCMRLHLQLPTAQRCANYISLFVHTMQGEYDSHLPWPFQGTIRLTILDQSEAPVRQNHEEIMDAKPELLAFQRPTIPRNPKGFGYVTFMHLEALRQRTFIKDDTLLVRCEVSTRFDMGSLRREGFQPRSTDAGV
UniProt Q9Y6M5, sequence (Q9Y6M5 whole entry): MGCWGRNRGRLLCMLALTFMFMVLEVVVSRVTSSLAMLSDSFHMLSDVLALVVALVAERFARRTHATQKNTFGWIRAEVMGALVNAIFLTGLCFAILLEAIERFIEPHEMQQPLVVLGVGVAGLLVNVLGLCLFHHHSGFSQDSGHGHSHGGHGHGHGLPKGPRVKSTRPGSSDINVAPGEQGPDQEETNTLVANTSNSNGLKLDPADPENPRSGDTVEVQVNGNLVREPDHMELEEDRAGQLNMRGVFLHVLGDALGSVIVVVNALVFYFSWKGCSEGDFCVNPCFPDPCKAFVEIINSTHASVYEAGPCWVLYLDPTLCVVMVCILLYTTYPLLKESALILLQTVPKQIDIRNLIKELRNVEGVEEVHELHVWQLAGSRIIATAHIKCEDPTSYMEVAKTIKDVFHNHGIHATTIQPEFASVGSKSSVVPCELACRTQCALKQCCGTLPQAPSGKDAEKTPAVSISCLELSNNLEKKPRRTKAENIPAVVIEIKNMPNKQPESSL

Target	thermal stability z-score
NECAP1 (UniProt Q8NC96)	0.451
GBE1 (UniProt Q04446)	0.344
RPS5 (UniProt P46782)	0.458
NIFK (UniProt Q9BYG3)	0.467
TRAPPC4 (UniProt Q9Y296)	0.0129
DGCR14 (UniProt Q96DF8)	0.06
TTC19 (UniProt Q6DKK2)	0.897
HELLS (UniProt Q9NRZ9)	-0.0408
GFM1 (UniProt Q96RP9)	0.0798
ANXA3 (UniProt P12429)	0.504
RPL18A (UniProt Q02543)	0.246
ACTN1 (UniProt P12814)	0.339
PARK7 (UniProt Q99497)	0.686
DHRS11 (UniProt Q6UWP2)	0.188
TRAF6 (UniProt Q9Y4K3)	-0.0851
SETX (UniProt Q7Z333)	-0.0676
RAB7A (UniProt P51149)	0.352
CCBL1|KYAT1	0.343

Target	thermal stability z-score
ERAL1 (UniProt O75616)	-0.113
PRELID1 (UniProt Q9Y255)	-0.2
GTF2H3 (UniProt Q13889)	-0.229
FNBP1L (UniProt Q5T0N5)	0.0394
ENDOG (UniProt Q14249)	-0.145
SLC30A1 (UniProt Q9Y6M5)	0.0172
TBK1 (UniProt Q9UHD2)	-0.189
MADD (UniProt Q8WXG6)	1.4
BLOC1S5 (UniProt Q8TDH9)	0.0962
DBI (UniProt P07108)	0.274
PTMS (UniProt P20962)	0.808
PFKM (UniProt P08237)	0.235
CNPY4 (UniProt Q8N129)	-1.57
FPGT (UniProt O14772)	0.182
WDR62 (UniProt O43379)	-0.153
CSRP1 (UniProt P21291)	0.655
RPUSD4 (UniProt Q96CM3)	-1.67
PSMC4 (UniProt P43686)	-0.18

compound: O=[As]([O-])(O)O.[K+] [potassium arsenate]; assay: as above; conditions: HeLa; arsenate concentration 1 mM
Protocol: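 Cellular thermal proteome profiling in HeLa cells treated with 1 mM arsenate for 1 h (DMSO pretreatment), heated to ten temperatures (37-66.3 °C). Soluble protein was quantified by TMT mass spectrometry relative to DMSO controls; the thermal stability score was transformed to a z-score; mean of n = 3 experiments.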

Target	thermal stability z-score
PRPF18 (UniProt Q99633)	-0.321
DDX18 (UniProt Q9NVP1)	-1.26
PRKACB (UniProt P22694)	0.18
C17ORF59 (UniProt Q96GS4)	-0.163
IQSEC1 (UniProt Q6DN90)	0.159
MRPL32 (UniProt Q9BYC8)	-0.401
DOK1 (UniProt Q99704)	-0.45
SPG20 (UniProt Q8N0X7)	0.193
S100P (UniProt P25815)	0.0845
DDHD1 (UniProt Q8NEL9)	0.0595
EMC4 (UniProt Q5J8M3)	0.26
PIP4K2C (UniProt Q8TBX8)	1.78
TBCD (UniProt Q9BTW9)	0.705
NDUFB8 (UniProt O95169)	0.119
RNF40 (UniProt O75150)	0.711
ASUN (UniProt Q9NVM9)	0.906
TYMP (UniProt P19971)	0.13
PDXP (UniProt Q96GD0)	-0.658
POLR2G (UniProt P62487)	-1.1
ARMC1 (UniProt Q9NVT9)	0.476
TMEM199 (UniProt Q8N511)	0.171
HEXIM2 (UniProt Q96MH2)	0.53
TUFM (UniProt P49411)	-1.29
LTA4H (UniProt P09960)	-0.164

Target	thermal stability z-score
MTA1 (UniProt Q13330)	-1.05
GSR (UniProt P00390)	-0.106
ZHX1 (UniProt Q9UKY1)	-0.0668
ACTR3 (UniProt P61158)	-0.483
TRAP1 (UniProt Q12931)	-0.477
ZNF428 (UniProt Q96B54)	1.85
TAMM41 (UniProt Q96BW9)	0.161
LIMA1 (UniProt Q9UHB6)	-1
MAP3K7 (UniProt O43318)	0.066
RNF214 (UniProt Q8ND24)	-0.33
NUP54 (UniProt Q7Z3B4)	0.309
NECAP1 (UniProt Q8NC96)	-0.194
GBE1 (UniProt Q04446)	-0.956
RPS5 (UniProt P46782)	-0.546
NIFK (UniProt Q9BYG3)	-1.78
TRAPPC4 (UniProt Q9Y296)	-0.0725
DGCR14 (UniProt Q96DF8)	0.724
TTC19 (UniProt Q6DKK2)	-1.29
HELLS (UniProt Q9NRZ9)	-0.282
GFM1 (UniProt Q96RP9)	-1.15
ANXA3 (UniProt P12429)	0.227
RPL18A (UniProt Q02543)	-0.333
ACTN1 (UniProt P12814)	0.163
PARK7 (UniProt Q99497)	4.42

Target	thermal stability z-score
DHRS11 (UniProt Q6UWP2)	0.252
TRAF6 (UniProt Q9Y4K3)	-0.00689
SETX (UniProt Q7Z333)	-0.00223
RAB7A (UniProt P51149)	0.258
CCBL1|KYAT1	0.447
ERAL1 (UniProt O75616)	-0.45
PRELID1 (UniProt Q9Y255)	-0.054
GTF2H3 (UniProt Q13889)	-0.106
FNBP1L (UniProt Q5T0N5)	-0.284
ENDOG (UniProt Q14249)	-0.245
SLC30A1 (UniProt Q9Y6M5)	-0.906
TBK1 (UniProt Q9UHD2)	-0.00763
MADD (UniProt Q8WXG6)	1.3
BLOC1S5 (UniProt Q8TDH9)	0.446
DBI (UniProt P07108)	-0.228
PTMS (UniProt P20962)	-0.629
PFKM (UniProt P08237)	-0.134
CNPY4 (UniProt Q8N129)	0.532
FPGT (UniProt O14772)	0.0182
WDR62 (UniProt O43379)	-0.0901
CSRP1 (UniProt P21291)	0.517
RPUSD4 (UniProt Q96CM3)	-0.998
PSMC4 (UniProt P43686)	-0.369
